These results are taken from patent US20220372491A1, “TREATMENT OF RENAL CYSTIC DISEASE” (MONASH UNIVERSITY, priority 2019, published 2022).

The test system of data set [1] is Inpp5e^Δ/Δ; Aurka^Δ/Δ mice. Description: Oral Alisertib treatment of Inpp5e^Δ/Δ; Aurka^Δ/Δ (double mutant) mice. The class given is in vivo, mouse. Here is the method: (§1) Alisertib treatment was performed based on previously published protocols (Nikonova et al., (2014) PNAS 111:12859-12864; Nikonova (2015) Frontiers Oncol. 5:228), as follows: Starting at P9 Inpp5e^Δ/Δ and Inpp5e^Δ/Δ mice were treated once daily for 5 days with Alisertib delivered orally by pipette in a suspended solution with a final composition of 3.6 mg/ml Alisertib ([…], Selleck Chemicals) in 10% 2-hydroxypropyl-β-cyclodextrin ([…]-10ML, Sigma-Aldrich) with 1% (vol/vol) sodium bicarbonate ([…]-100ML, Sigma-Aldrich) and 5% glucose (49163-100ML, Sigma-Aldrich). Mice were dosed with a volume to deliver Alisertib at 10 mg/kg. Mouse body weights were recorded daily. Solutions were stored at 4 degrees for up to 1 month. […] Mice were then given 2 recovery days before being sacrificed at P15. This time frame was selected as it corresponded to an exponential rise in cyst number in Inpp5e^Δ/Δ mice. Aurka^Δ/Δ and Inpp5e^Δ/Δ; Aurka^Δ/Δ treatment groups were also included to determine the AURKA specificity of any phenotypes observed given Alisertib's broad drug targeting profile. Mice were culled via cervical dislocation or decapitation, as most appropriate for their age following ethical guidelines. Procedures were all conducted by ethically approved and trained personnel. Mice were measured for body weight, with ear tissue, urine and kidneys collected. Ear tissue and urine was stored at -20 degrees. Newborn and P4 kidneys were fixed whole in 4% PFA for 16 hrs at 4 degrees, while the kidney capsule membrane was removed from older mouse kidneys, with the kidney cut into halves and fixed in 10% NBF for 16 hrs at room temperature. Half the kidney samples were sent for histological processing and the other half were snap frozen and stored at -80 degrees until processed for RNA, alpha analysis and/or western blotting. Kidney tissues were paraffin imbedded and sectioned at 4 μm for most analysis with the exception of being sectioned at 10 μm for cilia analysis. Antigen retrieval was performed in Citrate buffer pH6 using Tefal pressure cooker or using a DAKO […] system as indicated. Antibody staining was performed as described elsewhere (Cottle et al., (2013) Cell reports, 3: 427-441), except triton x-100 was included in blocking buffers, and cover slips mounted using Prolong Gold (Invitrogen). Antibodies and stains are listed below. Imaging was using an Aperio brightfield and fluorescent scanners (MHP), Olympus Fluoview 500 (Biochemistry Imaging Suite), Nikon C2 or Leica SP8 confocal microscope (MMI). All quantifications with the exception of Nanostring analysis and Chi squared tests for analysis of mendelian ratios, were analyzed using the unpaired Student's t-test assuming unequal variance in Microsoft Excel and P≤0.05 values were considered significant. One or two tailed tests were selected as appropriate for hypothesis. Values presented are Mean±Standard Error of the Mean (S.E.M). 2K/BW % was calculated as the combined kidney weight over total body weight percentage. Albumin Creatinine Ratios (ACR) were calculated as μg Albumin over mg of Creatinine. Cyst identity was measured as a proportion of cyst epithelial area for each marker out of total sum of cyst epithelial areas of all markers (adjusted for marker co-localisation). Cystic index % is calculated as the proportion of cystic space occupied out of total kidney area in DBA-stained kidney longitudinal cross-sections. Cyst number reflects the average number of cysts counted per DBA-stained longitudinal kidney cross section. Cyst size is the average cross-sectional cyst size (mm^2) of cysts sampled from DBA-stained kidney longitudinal cross sections. Due to escape of Cre activity at the Aurka locus in cysts, unless otherwise indicated references to Inpp5e^Δ/Δ; Aurka^Δ/Δ immunostains and their quantifications reflect non-cystic regions throughout this study.

Data set [2] can be described thus: Solubility of Alisertib in the oral dosing vehicle. The format is physicochemical. Conditions: 3.6 mg/ml in 10% 2-hydroxypropyl-β-cyclodextrin, 1% sodium bicarbonate, 5% glucose. How it is done:
Alisertib treatment was performed based on previously published protocols (Nikonova et al., (2014) PNAS 111:12859-12864; Nikonova (2015) Frontiers Oncol. 5:228), as follows: Starting at P9 Inpp5e^Δ/Δ and Inpp5e^Δ/Δ mice were treated once daily for 5 days with Alisertib delivered orally by pipette in a suspended solution with a final composition of 3.6 mg/ml Alisertib (S1133, Selleck Chemicals) in 10% 2-hydroxypropyl-β-cyclodextrin (H5784-10ML, Sigma-Aldrich) with 1% (vol/vol) sodium bicarbonate (S8761-100ML, Sigma-Aldrich) and 5% glucose (49163-100ML, Sigma-Aldrich). Mice were dosed with a volume to deliver Alisertib at 10 mg/kg. Mouse body weights were recorded daily. Solutions were stored at 4 degrees for up to 1 month. […] Mice were then given 2 recovery days before being sacrificed at P15. This time frame was selected as it corresponded to an exponential rise in cyst number in Inpp5e^Δ/Δ mice. Aurka^Δ/Δ and Inpp5e^Δ/Δ; Aurka^Δ/Δ treatment groups were also included to determine the AURKA specificity of any phenotypes observed given Alisertib's broad drug targeting profile.

Data set [3] has as its system mIMCD3 cells. In words: Western blots and densitometry of mIMCD3 cell lysates treated with Alisertib. The format is cell-based, mouse. Here is the method: mIMCD3 cells were grown as previously described (Plotnikova et al., (2015) J. Cell Sci. 128: 364-372). Using a hemocytometer, mIMCD3 cells were seeded in 6 well dishes at 1.3×10^5 cells per well in growth media and incubated overnight at 37° C. in 5% CO2. Lipofectamine 3000 Reagent kit (Invitrogen) was used for plasmid transfection according to manufacturer's protocol (3.75 μl of Lipofectamine 3000, 2.5 μg DNA and 5 μl of P3000 reagent in each well). siRNA transfections were also performed with Lipofectamine 3000 (Invitrogen) according to manufacturer's protocol (0.75 μl of Lipofectamine 3000, 25 pmol siRNA in each well). Plasmids included pCGN (HA-tag)^48, pCGN-HA-AURKA (gift from Olga Plotniknova), and pCGN-HA-AURKA KD (made in this study using Q5 Site-Directed Mutagenesis Kit NEB.E0554S according to manufacturer's protocol to contain the K162R variant described for pCDNA3.1-mRFP-AURKA K162R). All plasmids were prepared with Qiagen plasmid midiprep kits. siRNAs were All Stars negative control siRNA (S103650318, Qiagen) and Mm_Aurka_1 Flexitube siRNA (S100908803, Qiagen). Alisertib (10 mM in DMSO, S1133, SelleckChem) was added to media at 1 μM final concentration where indicated.
Following ˜16 hrs after plasmid and siRNA transfections, fresh growth media was placed on mIMCD3 cells and wells harvested up to 24 hrs later. Alternatively, for serum-starvation conditions, 0.5% serum containing was placed on mIMCD3 cells and wells harvested after 24 hrs. For serum-restimulation conditions mIMCD3 cells were first placed in 0.5% serum media for 24 hrs before addition of fresh growth media for up to 20 mins before harvest. For immunofluorescence experiments, mIMCD3 cells were grown on collagen I-coated 22×22 mm coverslips and processed as described in Cottle et al., (2007) J. Cell Sci. 120: 1423-1435 and Wiradjaja et al., (2013) Disease models & mechanisms, 6: 1426-1433).
Tissue extracts were prepared in AlphaLISA Surefire Ultra lysis buffer. Cell extracts were prepared in 1% Triton X-100 in Tris-buffered saline pH7.4 with Roche complete mini protease and PhosSTOP inhibitor tablets as described above. Immunoblotting was performed using standard techniques, with antibodies listed below. Densitometry values were determined using ImageJ software and occasional extreme outliers more than 2 standard deviations from the mean omitted.

The test system of data set [4] is Inpp5e^Δ/Δ mice. In words: Oral Alisertib treatment of Inpp5e^Δ/Δ mice (Joubert Syndrome associated PKD model). The class given is in vivo, mouse. Here is the method:
as §1

The test system of data set [5] is adult mouse models of ADPKD. Conditions: cited from earlier work.
[6] abbreviates: double mutant mice, relative to vehicle controls.
Setting [7] is: mice in which Aurka had been predominantly deleted, 10 mg/kg orally P9 to P13, P15.
Where [8] appears, read: 1 μM Alisertib, 48 hrs, growth conditions.
Where [9] appears, read: Inpp5e^Δ/Δ mice, 10 mg/kg orally P9 to P13, P15, vs vehicle.

For the molecule `COc1cc(Nc2ncc3c(n2)-c2ccc(Cl)cc2C(c2c(F)cccc2OC)=NC3)ccc1C(=O)O` [Alisertib], in data set [1] (setting [6]), the “AKT pT308 expression” value was “did not show reduced ciliation or AKT pT308 expression” and the ciliation entry was “did not show reduced ciliation”. For the same molecule, in data set [1] (setting [7]), the cyst index result is recorded as “No change”, the cyst number result is “No change”, the cyst size result is “No change” and the “kidney to body weight ratio” value is “No change”. Further, the “solubility in dosing vehicle” value in data set [2] is on record as “largely insoluble”. In addition, the AURKA protein level result in data set [3] (1 μM Alisertib, 48 hrs of exposure, growth conditions) was “two-fold increase in AURKA protein”. For the same molecule, in data set [3] (setting [8]), the “AKT phosphorylation at S473 (AKT pS473/total AKT expression ratio)” value is on record as “but not S473”, the “AKT phosphorylation at T308 (AKT pT308/total AKT expression ratio)” value is reported as “increasing AKT phosphorylation at T308” and the “total AKT” value is reported as “modestly reducing total AKT”. Further, the “rebound increase of AKT T308 phosphorylation” value in data set [3] (24 hrs of Alisertib exposure) is “not observed following 24 hrs of Alisertib exposure”. Besides, in data set [3] (Alisertib or vehicle for 48 hrs under growth conditions), the “AURKA T288 phosphorylation ratio” value is “reduces the AURKA T288 phosphorylation ratio”. The “levels of nuclear localised active p53 in collecting duct cells” value in data set [4] (10 mg/kg orally once daily P9 to P13, tissue at P15) is given as “increased levels of nuclear localised active p53”. In addition, in data set [4] (Inpp5e^Δ/Δ kidneys, vs vehicle), the “cilia number (% ciliated collecting duct cells)” value is on record as “markedly reduced cilia number”; the “co-expression of high levels of AURKA and AKT pT308 in collecting duct cells” value was “increased co-expression of high levels of AURKA and AKT pT308”. Further, in data set [4] (setting [9]), the cyst size entry is “reduced cyst size”; the “kidney to body weight ratio and kidney size” value was “marked reduction in kidney to body weight ratio and kidney size”; the number of cysts entry is “increased in the number of cysts”. Besides, the hair loss result in data set [4] (all Alisertib-treated mouse cohorts vs vehicle, 10 mg/kg orally once daily P9 to P13, tissue at P15) is on record as “hair loss observed in all treated mouse cohorts”. The cystic index % entry in data set [4] (cystic genotypes Inpp5e^Δ/Δ and Inpp5e^Δ/Δ, Aurka^Δ/Δ, vs vehicle) was “no Alisertib-induced changes”. The cystic disease entry in data set [5] is listed as “exaggerates cystic disease”.
